Measurements as given in patent US6514975B1, “Anti-inflammatory piperazinyl-benzyl-tetrazole derivatives and intermediates thereof” (Pfizer Inc, priority 1997, dated 2003).
pIC50: −log10 of the molar value.

How the values were obtained:
[1] = target: T1, delta opioid receptor, mouse vas deferens (MVD)(δ) (Mus musculus, UniProt P32300); experiment: delta opioid agonist activity in mouse vas deferens (inhibition of electrically-induced contractions); details: isolated mouse vas deferens; inhibition of electrically-induced contractions in the presence of 300 nM mu-selective antagonist CTOP; measure of δ agonism
T1 construct: tissue Charles River; host or cells: isolated mouse vas deferens (DC1 strain)
Method: Opioid (delta, mu and kappa) activity was studied in two isolated tissues, the mouse vas deferens (MVD)(δ) and the guinea-pig myentric plexus with attached longitudinal muscle (GPMP)(μ and κ).
MVD (DC1 strain, Charles River, 25-35 g) were suspended in 15 ml organ baths containing Mg^++-free Krebs' buffer of the following composition (mM): NaCl, 119; KCl, 4.7; NaHCO3, 25; KH2PO4, 1.2; CaCl2, 2,5 and glucose, 11. The buffer was gassed with 95% O2 and 5% CO2. The tissues were suspended between platinum electrodes, attached to an isometric transducer with 500 mg tension and stimulated with 0.03 Hz pulses of 1-msec pulse-width at supramaxinal voltage. IC50 values were determined by the regression analysis of concentration-response curves for inhibition of electrically-induced contractions in the presence of 300 nM of the mu-selective antagonist CTOP. This test is a measure of δ agonism.
The delta opioid agonist activity of a number of compounds were determined in mouse vas deferens (as described above) with the following results: […]

T1 sequence (P32300 whole entry): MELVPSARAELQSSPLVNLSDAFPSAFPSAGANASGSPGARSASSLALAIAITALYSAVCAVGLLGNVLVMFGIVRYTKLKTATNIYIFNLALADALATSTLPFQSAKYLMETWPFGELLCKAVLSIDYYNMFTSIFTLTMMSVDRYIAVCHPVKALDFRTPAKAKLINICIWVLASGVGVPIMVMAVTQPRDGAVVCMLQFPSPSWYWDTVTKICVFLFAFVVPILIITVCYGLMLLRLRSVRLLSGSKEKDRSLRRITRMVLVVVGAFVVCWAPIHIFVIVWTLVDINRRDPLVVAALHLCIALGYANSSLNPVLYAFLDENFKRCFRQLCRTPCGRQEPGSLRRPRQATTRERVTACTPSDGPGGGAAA

| Structure (SMILES) | pIC50 [1] | melting point [°C] |
| --- | --- | --- |
| C[C@@H]1CN([C@H](c2ccc(-c3nnn[nH]3)cc2)c2cccc(O)c2)[C@@H](C)CN1Cc1ccccc1 [Example 4, (−)-5-{4-[(R)-α-(2(S),5(R)-4-benzyl-2,5-dimethyl-1-piperazinyl)-3-hydroxybenzyl]phenyl}-1H-tetrazole] | 10.90 |  |
| C=CCN1C[C@H](C)N([C@H](c2ccc(-c3nnn(CCCCC(=O)O)n3)cc2)c2cccc(O)c2)C[C@H]1C [Example 42, (+)-5-(5-{4-[(R)-α-(2(S),5(R)-4-Allyl-2,5-dimethyl-1-piperazinyl)-3-hydroxybenzyl]phenyl}-2-tetrazolyl)valeric Acid] | 9.50 |  |
| C=CCN1C[C@H](C)N([C@H](c2ccc(-c3nnn(CCOCC(=O)O)n3)cc2)c2cccc(O)c2)C[C@H]1C |  | 137 to 140 |
| C=CCN1C[C@H](C)N([C@H](c2ccc(-c3nnn[nH]3)cc2)c2cccc(O)c2)C[C@H]1C [Example 1, (+)-5-{4-[(R)-α-(2(S),5(R)-4-Allyl-2,5-dimethyl-1-piperazinyl)-3-hydroxybenzyl]phenyl}-1H-tetrazole] | 9.70 |  |
